# Target: T1, h-GABAA α2β2γ1 (Homo sapiens, UniProt P47869+Q8N1C3)
# T1 sequence (P47869 29-451): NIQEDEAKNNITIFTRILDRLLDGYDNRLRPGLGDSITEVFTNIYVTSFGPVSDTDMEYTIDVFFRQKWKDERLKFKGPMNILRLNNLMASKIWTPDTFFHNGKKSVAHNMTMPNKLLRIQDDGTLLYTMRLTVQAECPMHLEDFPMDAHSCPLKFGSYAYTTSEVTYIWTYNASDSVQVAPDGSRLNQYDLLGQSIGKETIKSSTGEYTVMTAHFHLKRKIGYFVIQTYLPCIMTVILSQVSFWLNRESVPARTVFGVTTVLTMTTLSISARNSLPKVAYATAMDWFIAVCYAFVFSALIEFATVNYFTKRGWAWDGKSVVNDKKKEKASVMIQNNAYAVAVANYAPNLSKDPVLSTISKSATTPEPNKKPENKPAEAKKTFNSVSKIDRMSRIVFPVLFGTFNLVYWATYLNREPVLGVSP
# T1 sequence (P47870 25-512 partner limits assumed): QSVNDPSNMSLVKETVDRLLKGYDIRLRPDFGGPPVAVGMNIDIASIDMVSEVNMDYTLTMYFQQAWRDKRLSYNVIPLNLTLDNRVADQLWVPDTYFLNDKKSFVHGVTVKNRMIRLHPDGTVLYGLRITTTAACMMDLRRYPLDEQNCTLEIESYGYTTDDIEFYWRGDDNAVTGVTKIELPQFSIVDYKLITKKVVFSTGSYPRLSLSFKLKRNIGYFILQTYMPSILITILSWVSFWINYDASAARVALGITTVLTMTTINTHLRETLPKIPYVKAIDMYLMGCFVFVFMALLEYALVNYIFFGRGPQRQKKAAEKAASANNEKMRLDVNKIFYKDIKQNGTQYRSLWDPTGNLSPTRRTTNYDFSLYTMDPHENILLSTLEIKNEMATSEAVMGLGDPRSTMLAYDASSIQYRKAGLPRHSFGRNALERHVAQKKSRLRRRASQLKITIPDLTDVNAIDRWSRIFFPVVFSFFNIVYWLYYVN
# T1 sequence (Q8N1C3 36-465): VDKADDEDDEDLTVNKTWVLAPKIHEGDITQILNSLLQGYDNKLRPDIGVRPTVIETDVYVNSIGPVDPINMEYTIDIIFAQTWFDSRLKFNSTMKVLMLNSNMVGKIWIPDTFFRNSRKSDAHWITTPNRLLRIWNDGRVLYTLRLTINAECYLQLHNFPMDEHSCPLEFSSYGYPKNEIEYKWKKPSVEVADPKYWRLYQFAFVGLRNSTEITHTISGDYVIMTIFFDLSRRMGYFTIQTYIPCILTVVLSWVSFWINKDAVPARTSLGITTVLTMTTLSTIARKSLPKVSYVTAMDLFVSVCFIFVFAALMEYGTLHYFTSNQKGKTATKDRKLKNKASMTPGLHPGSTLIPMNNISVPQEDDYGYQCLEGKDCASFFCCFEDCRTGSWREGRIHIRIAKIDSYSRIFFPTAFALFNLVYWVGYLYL
# Experiment: Two-electrode voltage clamp electrophysiology in Xenopus oocytes, modulation of GABA EC20 current
# Type: cell-based
# Set-up: host or cells: Xenopus laevis oocytes, RNA micro-injection
# Settings: Table 2; for Efficacy (GABA)%: % modulation of GABA EC20 = 100*(Fold increase−1), compound at approx. 30-fold Ki; for Fold increase h-GABA-A α2β2γ1 oocyte @ 30-fold Ki: compound at approx. 30-fold its Ki α2β2γ1, GABA EC20, Xenopus oocytes
# Description: Xenopus laevis oocytes at maturation stages V-VJ were used for the expression of cloned mRNA encoding GABAA receptor subunits. Oocytes ready for RNA micro-injection were bought from Ecocyte, Castrop-Rauxel, Germany and stored in modified Barth's medium (composition in mM: NaCl 88, KCl 1, NaHCO3 2.4, HEPES 10, MgSO4 0.82, CaNO3 0.33, CaCl2 0.33, pH=7.5) at 20° C. until the experiment.
# Oocytes were plated in 96-well plates for microinjection using the Roboinject automated instrument (MultiChannelSystems, Reutlingen, Germany). Approximately 50 nL of an aqueous solution containing the RNA transcripts for the subunits of the desired GABAA receptor subtype was injected into each oocyte. […] Oocytes were kept in modified Barth's medium (composition in mM: NaCl 88, KCl 1, NaHCO3 […], HEPES 10, MgSO4 0.82, CaNO3 0.33, CaCl2 0.33, pH=7.5) at 20° C. until the experiment.
# Electrophysiological experiments were performed using the Roboocyte instrument (MultiChannelSystems, Reutlingen, Germany) on days 3 to 5 after the micro-injection of mRNA. During the experiment the oocytes were constantly superfused by a solution containing (in mM) NaCl 90, KCl 1, HEPES 5, MgCl2 1, CaCl2 1 (pH 7.4). Oocytes were impaled by two glass microelectrodes (resistance: 0.5-0.8 MΩ) which were filled with a solution containing KCl 1M+K-acetate 1.5 M and voltage-clamped to −80 mV. The recordings were performed at room temperature using the Roboocyte two-electrode voltage clamp system (Multichannelsystem). After an initial equilibration period of 1.5 min GABA was added for 1.5 min at a concentration evoking approximately 20% of a maximal current response (EC20). After another rest interval of 2.5 min GABA was again added evoking a response of similar amplitude and shape. […] Current traces were recorded at a digitization rate of 10 Hz during and shortly before and after the GABA application.
# Each compound and concentration was tested on at least 3 oocytes. Different oocytes were used for different compound concentrations.
# For the analysis, the digitized current traces of the first and second GABA response were superimposed and, if necessary, rescaled to equal maximal amplitudes. The ratio between the two responses during the time interval of test compound application was calculated point by point. The extremum of the resulting “ratio trace” was taken as the efficacy (“Fold increase”) of the compound expressed as “% modulation of GABA EC20” (100*(Fold increase−1)).
SMILES,Efficacy (GABA)% [%],Fold increase h-GABA-A α2β2γ1 oocyte @ 30-fold Ki
"Cc1nnc2n1-c1ccc(Cl)c(Cl)c1C(c1ncccc1F)=NC2 [Example 71, 7,8-dichloro-6-(3-fluoro-2-pyridyl)-1-methyl-4H-[1,2,4]triazolo[4,3-a][1,4]benzodiazepine]",99,1.99
"Fc1cccc(F)c1C1=NCc2nnc(-c3ccncn3)n2-c2ccc(Cl)c(Cl)c21 [Example 12, 7,8-dichloro-6-(2,6-difluorophenyl)-1-pyrimidin-4-yl-4H-[1,2,4]triazolo[4,3-a][1,4]benzodiazepine]",49,1.49
"Fc1cccnc1C1=NCc2nnc(-c3cccnn3)n2-c2ccc(Cl)c(Cl)c21 [Example 54, 7,8-dichloro-6-(3-fluoro-2-pyridyl)-1-pyridazin-3-yl-4H-[1,2,4]triazolo[4,3-a][1,4]benzodiazepine]",602,7.02
"Cc1nnc2n1-c1ccc(I)c(Cl)c1C(c1c(F)cccc1F)=NC2 [Example 41, 7-chloro-6-(2,6-difluorophenyl)-8-iodo-1-methyl-4H-[1,2,4]triazolo[4,3-a][1,4]benzodiazepine]",70,1.70
"Fc1cccc(F)c1C1=NCc2nnc(-c3cccnn3)n2-c2ccc(Cl)c(Cl)c21 [Example 14, 7,8-dichloro-6-(2,6-difluorophenyl)-1-pyridazin-3-yl-4H-[1,2,4]triazolo[4,3-a][1,4]benzodiazepine]",71,1.71
"Fc1ccccc1C1=NCc2nnc(-c3cccnn3)n2-c2ccc(C(F)(F)F)c(Cl)c21 [Example 27, 7-chloro-6-(2-fluorophenyl)-1-pyridazin-3-yl-8-(trifluoromethyl)-4H-[1,2,4]triazolo[4,3-a][1,4]benzodiazepine]",71,1.71
"Cc1ccc2c(c1Cl)C(c1c(F)cccc1F)=NCc1nnc(C)n1-2 [Example 20, 7-chloro-6-(2,6-difluorophenyl)-1,8-dimethyl-4H-[1,2,4]triazolo[4,3-a][1,4]benzodiazepine]",57,1.57
"Fc1cccc(F)c1C1=NCc2nnc(C3CCOCC3)n2-c2ccc(Cl)c(Cl)c21 [Example 11, 7,8-dichloro-6-(2,6-difluorophenyl)-1-tetrahydropyran-4-yl-4H-[1,2,4]triazolo[4,3-a][1,4]benzodiazepine]",60,1.60
"Cn1cc(-c2nnc3n2-c2ccc(Cl)c(Cl)c2C(c2c(F)cccc2F)=NC3)cn1 [Example 28, 7,8-dichloro-6-(2,6-difluorophenyl)-1-(1-methylpyrazol-4-yl)-4H-[1,2,4]triazolo[4,3-a][1,4]benzodiazepine]",59,1.59
"Fc1cccnc1C1=NCc2nnc(-c3ccncn3)n2-c2ccc(Cl)c(Cl)c21 [Example 55, 7,8-dichloro-6-(3-fluoro-2-pyridyl)-1-pyrimidin-4-yl-4H-[1,2,4]triazolo[4,3-a][1,4]benzodiazepine]",59,1.59
"Cc1ccc2c(c1Cl)C(c1c(F)cccc1F)=NCc1nnc(-c3ccncn3)n1-2 [Example 49, 7-chloro-6-(2,6-difluorophenyl)-8-methyl-1-pyrimidin-4-yl-4H-[1,2,4]triazolo[4,3-a][1,4]benzodiazepine]",57,1.57
